Reference: ChEMBL document CHEMBL1201862, “PubChem BioAssay data set” (2004)
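These data come from cells grown in 96-well plates and exposed to compound for 48 hours at five concentrations. At the GI50, growth is halved.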 Calls of active or inactive are those of the source. Cut-off read from the data, not from the text of the source: active = GI50 up to about 1.1 µM and inactive = higher.

How the values were obtained:
Experiment in all cases: DTP human tumour cell line panel, 48 h
786-0 = tested on: 786-0
K562 = tested on: K562
OVCAR-3 = tested on: OVCAR-3
HCT-116 = tested on: HCT-116
SK-MEL-5 = tested on: SK-MEL-5
HT-29 = tested on: HT-29
XF498 = tested on: XF498
DMS-114 = tested on: DMS-114
UACC-62 = tested on: UACC-62
COLO 205 = tested on: COLO 205
HCC 2998 = tested on: HCC 2998
HL-60 = tested on: HL-60
OVCAR-8 = tested on: OVCAR-8
RXF 631 = tested on: RXF 631
SF-268 = tested on: SF-268
SNB-78 = tested on: SNB-78
SF-539 = tested on: SF-539
NCI-H226 = tested on: NCI-H226
HOP-62 = tested on: HOP-62
SN12C = tested on: SN12C
DMS-273 = tested on: DMS-273
SNB-19 = tested on: SNB-19
A549 = tested on: A549
M19-MEL = tested on: M19-MEL
SW-620 = tested on: SW-620
A498 = tested on: A498
CCRF-CEM = tested on: CCRF-CEM
SK-MEL-28 = tested on: SK-MEL-28
UACC-257 = tested on: UACC-257
EKVX = tested on: EKVX
UO-31 = tested on: UO-31
SK-MEL-2 = tested on: SK-MEL-2
CAKI-1 = tested on: CAKI-1
KM12 = tested on: KM12
HOP-92 = tested on: HOP-92
Malme-3M = tested on: Malme-3M
SR = tested on: SR
LXFL 529 = tested on: LXFL 529
SF-295 = tested on: SF-295
OVCAR-4 = tested on: OVCAR-4
MOLT-4 = tested on: MOLT-4
DLD-1 = tested on: DLD-1
M14 = tested on: M14
SK-OV-3 = tested on: SK-OV-3
SNB-75 = tested on: SNB-75
TK-10 = tested on: TK-10
RPMI-8226 = tested on: RPMI-8226
NCI-H522 = tested on: NCI-H522
NCI-H23 = tested on: NCI-H23
RXF 393 = tested on: RXF 393
HCT-15 = tested on: HCT-15
IGROV-1 = tested on: IGROV-1
NCI-H460 = tested on: NCI-H460
ACHN = tested on: ACHN
U-251 = tested on: U-251
KM-20L2 = tested on: KM-20L2
LOX IMVI = tested on: LOX IMVI
OVCAR-5 = tested on: OVCAR-5

## CN(C)CCCCC1CCN(CC(=O)N2c3ccccc3NC(=O)c3ccccc32)CC1
786-0
  GI50: > 100 µM (inactive)
K562
  GI50: > 100 µM (inactive)
OVCAR-3
  GI50: > 100 µM (inactive)
HCT-116
  GI50: > 100 µM (inactive)
SK-MEL-5
  GI50: > 100 µM (inactive)
HT-29
  GI50: 61.2 µM (inactive)
XF498
  GI50: > 100 µM (inactive)
DMS-114
  GI50: > 100 µM (inactive)
UACC-62
  GI50: > 100 µM (inactive)
COLO 205
  GI50: > 100 µM (inactive)
HCC 2998
  GI50: > 100 µM (inactive)
HL-60
  GI50: > 100 µM (inactive)
OVCAR-8
  GI50: > 100 µM (inactive)
RXF 631
  GI50: > 100 µM (inactive)
SF-268
  GI50: > 100 µM (inactive)
SNB-78
  GI50: > 100 µM (inactive)
SF-539
  GI50: > 100 µM (inactive)
NCI-H226
  GI50: > 100 µM (inactive)
HOP-62
  GI50: > 100 µM (inactive)
SN12C
  GI50: > 100 µM (inactive)
DMS-273
  GI50: > 100 µM (inactive)
SNB-19
  GI50: > 100 µM (inactive)
A549
  GI50: > 100 µM (inactive)
M19-MEL
  GI50: > 100 µM (inactive)
SW-620
  GI50: > 100 µM (inactive)
A498
  GI50: > 100 µM (inactive)
CCRF-CEM
  GI50: 69.8 µM (inactive)
SK-MEL-28
  GI50: > 100 µM (inactive)
UACC-257
  GI50: > 100 µM (inactive)
EKVX
  GI50: > 100 µM (inactive)
UO-31
  GI50: > 100 µM (inactive)
SK-MEL-2
  GI50: > 100 µM (inactive)
CAKI-1
  GI50: > 100 µM (inactive)
KM12
  GI50: > 100 µM (inactive)
HOP-92
  GI50: > 100 µM (inactive)
Malme-3M
  GI50: > 100 µM (inactive)
SR
  GI50: > 100 µM (inactive)
LXFL 529
  GI50: > 100 µM (inactive)
SF-295
  GI50: > 100 µM (inactive)
OVCAR-4
  GI50: > 100 µM (inactive)
MOLT-4
  GI50: > 100 µM (inactive)
DLD-1
  GI50: > 100 µM (inactive)
M14
  GI50: 28.1 µM (inactive)
SK-OV-3
  GI50: > 100 µM (inactive)
SNB-75
  GI50: > 100 µM (inactive)
TK-10
  GI50: > 100 µM (inactive)
RPMI-8226
  GI50: > 100 µM (inactive)
NCI-H522
  GI50: > 100 µM (inactive)
NCI-H23
  GI50: > 100 µM (inactive)

## COc1ccc2cc1Oc1ccc(cc1)C[C@@H]1c3cc(c(OC)cc3CCN1C)Oc1c(OC)c(OC)cc3c1[C@@H](C2)N(C)CC3 [PHAEANTHINE]
RXF 393
  GI50: 1.6 µM (inactive)
K562
  GI50: 2.11 µM (inactive)
OVCAR-3
  GI50: 15.7 µM (inactive)
HCT-116
  GI50: 2.83 µM (inactive)
SK-MEL-5
  GI50: 17.2 µM (inactive)
XF498
  GI50: 6.98 µM (inactive)
HCC 2998
  GI50: 15.8 µM (inactive)
HL-60
  GI50: 16.7 µM (inactive)
HCT-15
  GI50: 15.6 µM
OVCAR-8
  GI50: 14.9 µM (inactive)
RXF 631
  GI50: 14.1 µM (inactive)
SF-268
  GI50: 25 µM (inactive)
SNB-78
  GI50: 16.6 µM (inactive)
SF-539
  GI50: 10.9 µM (inactive)
HOP-62
  GI50: 18.9 µM (inactive)
IGROV-1
  GI50: 19.8 µM (inactive)
DMS-273
  GI50: 17.3 µM (inactive)
SNB-19
  GI50: 16.9 µM (inactive)
A498
  GI50: 18.5 µM (inactive)
CCRF-CEM
  GI50: 14.3 µM (inactive)
NCI-H460
  GI50: 14.3 µM (inactive)
ACHN
  GI50: 19.2 µM (inactive)
UACC-257
  GI50: 14.9 µM (inactive)
U-251
  GI50: 13.2 µM (inactive)
HOP-92
  GI50: 13.2 µM (inactive)
SR
  GI50: 15.9 µM (inactive)
LXFL 529
  GI50: 18.7 µM (inactive)
SF-295
  GI50: 17.5 µM (inactive)
DLD-1
  GI50: 24.8 µM (inactive)
M14
  GI50: 1.98 µM (inactive)
SK-OV-3
  GI50: 24.7 µM (inactive)
SNB-75
  GI50: 9.73 µM (inactive)
TK-10
  GI50: 19.2 µM (inactive)
RPMI-8226
  GI50: 15.6 µM (inactive)
NCI-H522
  GI50: 15.7 µM (inactive)
KM-20L2
  GI50: 6.56 µM (inactive)
NCI-H23
  GI50: 17.6 µM (inactive)

## Cn1ccnc1Cn1cc(-c2cccc(-c3cn[nH]c3)c2)cn1
RXF 393
  GI50: 24.8 µM (inactive)
786-0
  GI50: > 100 µM (inactive)
K562
  GI50: 55 µM (inactive)
OVCAR-3
  GI50: > 100 µM (inactive)
HCT-116
  GI50: 50.7 µM (inactive)
SK-MEL-5
  GI50: > 100 µM (inactive)
XF498
  GI50: > 100 µM (inactive)
DMS-114
  GI50: > 100 µM (inactive)
UACC-62
  GI50: 9.23 µM (inactive)
COLO 205
  GI50: > 100 µM (inactive)
HCC 2998
  GI50: > 100 µM (inactive)
HL-60
  GI50: > 100 µM (inactive)
HCT-15
  GI50: 79.3 µM
OVCAR-8
  GI50: > 100 µM (inactive)
RXF 631
  GI50: > 100 µM (inactive)
SF-268
  GI50: 44.6 µM (inactive)
SNB-78
  GI50: > 100 µM (inactive)
HOP-62
  GI50: > 100 µM (inactive)
SN12C
  GI50: 69.7 µM (inactive)
DMS-273
  GI50: > 100 µM (inactive)
SNB-19
  GI50: > 100 µM (inactive)
A549
  GI50: 39.6 µM (inactive)
M19-MEL
  GI50: > 100 µM (inactive)
SW-620
  GI50: 82.6 µM (inactive)
A498
  GI50: 38.1 µM (inactive)
CCRF-CEM
  GI50: 58.5 µM (inactive)
NCI-H460
  GI50: > 100 µM (inactive)
LOX IMVI
  GI50: 88.5 µM (inactive)
SK-MEL-28
  GI50: > 100 µM (inactive)
ACHN
  GI50: 28.1 µM (inactive)
UACC-257
  GI50: > 100 µM (inactive)
U-251
  GI50: 84.5 µM (inactive)
EKVX
  GI50: 14.6 µM (inactive)
UO-31
  GI50: 19.2 µM (inactive)
SK-MEL-2
  GI50: > 100 µM (inactive)
CAKI-1
  GI50: 15.2 µM (inactive)
KM12
  GI50: > 100 µM (inactive)
HOP-92
  GI50: 50.1 µM (inactive)
SR
  GI50: 80 µM (inactive)
LXFL 529
  GI50: 99.1 µM (inactive)
SF-295
  GI50: > 100 µM (inactive)
OVCAR-4
  GI50: 55.2 µM (inactive)
MOLT-4
  GI50: 63.4 µM (inactive)
DLD-1
  GI50: > 100 µM (inactive)
M14
  GI50: > 100 µM (inactive)
SK-OV-3
  GI50: 0.753 µM (active)
SNB-75
  GI50: 23.2 µM (inactive)
TK-10
  GI50: 35.5 µM (inactive)
RPMI-8226
  GI50: > 100 µM (inactive)
NCI-H522
  GI50: 22.6 µM (inactive)
KM-20L2
  GI50: > 100 µM (inactive)

## O=c1cccccc1NCCCCCCCCNc1cccccc1=O
RXF 393
  GI50: > 100 µM (inactive)
786-0
  GI50: > 100 µM (inactive)
K562
  GI50: 7.06 µM (inactive)
OVCAR-3
  GI50: 7.59 µM (inactive)
HCT-116
  GI50: 9.62 µM (inactive)
HT-29
  GI50: > 100 µM (inactive)
XF498
  GI50: 23 µM (inactive)
DMS-114
  GI50: 1.77 µM (inactive)
UACC-62
  GI50: > 100 µM (inactive)
COLO 205
  GI50: > 100 µM (inactive)
HCC 2998
  GI50: > 100 µM (inactive)
HL-60
  GI50: 3.53 µM (inactive)
HCT-15
  GI50: > 100 µM
OVCAR-8
  GI50: > 100 µM (inactive)
RXF 631
  GI50: 1.74 µM (inactive)
SF-268
  GI50: > 100 µM (inactive)
SNB-78
  GI50: > 100 µM (inactive)
SF-539
  GI50: > 100 µM (inactive)
NCI-H226
  GI50: > 100 µM (inactive)
OVCAR-5
  GI50: > 100 µM (inactive)
HOP-62
  GI50: > 100 µM (inactive)
SN12C
  GI50: > 100 µM (inactive)
IGROV-1
  GI50: 94.2 µM (inactive)
DMS-273
  GI50: 55.7 µM (inactive)
SNB-19
  GI50: 38.1 µM (inactive)
A549
  GI50: 39.9 µM (inactive)
M19-MEL
  GI50: > 100 µM (inactive)
SW-620
  GI50: > 100 µM (inactive)
CCRF-CEM
  GI50: > 100 µM (inactive)
NCI-H460
  GI50: 85.7 µM (inactive)
LOX IMVI
  GI50: 14.3 µM (inactive)
ACHN
  GI50: 3.33 µM (inactive)
UACC-257
  GI50: > 100 µM (inactive)
U-251
  GI50: > 100 µM (inactive)
EKVX
  GI50: 24.9 µM (inactive)
UO-31
  GI50: 35.4 µM (inactive)
SK-MEL-2
  GI50: > 100 µM (inactive)
CAKI-1
  GI50: > 100 µM (inactive)
KM12
  GI50: > 100 µM (inactive)
HOP-92
  GI50: 22.9 µM (inactive)
Malme-3M
  GI50: > 100 µM (inactive)
SR
  GI50: 17.8 µM (inactive)
LXFL 529
  GI50: 47.9 µM (inactive)
SF-295
  GI50: 18.8 µM (inactive)
MOLT-4
  GI50: 36.1 µM (inactive)
DLD-1
  GI50: > 100 µM (inactive)
M14
  GI50: > 100 µM (inactive)
SK-OV-3
  GI50: > 100 µM (inactive)
SNB-75
  GI50: 32.4 µM (inactive)
RPMI-8226
  GI50: 6.56 µM (inactive)
NCI-H522
  GI50: 75.3 µM (inactive)
KM-20L2
  GI50: > 100 µM (inactive)
NCI-H23
  GI50: 6.78 µM (inactive)
